Laboratory results taken from the supplement of paper PMC9265050, “Inhibition of RNA Binding in SND1 Increases the Levels of miR-1-3p and Sensitizes Cancer Cells to Navitoclax” (Cancers, 2022).

Tested on: SW480
Experiment: drug sensitivity score (DSS, integrated dose-response area); higher = more sensitive (stronger viability reduction); extreme values may be limits of the assay
How it was run: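 After 7 days of induction with 0.1 µg/mL doxycycline, SW480 cells stably harbouring inducible control or SND1-targeting shRNA were plated at 1000 cells per well in 384-well plates preloaded with 525 small-molecule inhibitors at five concentrations. CellTiter-Glo viability readings were taken 72 h later. Drug sensitivity scores come from integrating the area under a fitted non-linear dose–response model.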

[1] = shRNA: SND1 shRNA1 (SND1 silenced)
[2] = shRNA: control shRNA (non-targeting)
[3] = shRNA: SND1 shRNA2 (SND1 silenced)

c1cc(CN2CCCNCCNCCCNCC2)ccc1CN1CCCNCCNCCCNCC1 [Plerixafor]
drug sensitivity score [1]: 0 DSS
drug sensitivity score [2]: 0 DSS

Cc1ccc(-n2nc(C(C)(C)C)cc2NC(=O)Nc2ccc(OCCN3CCOCC3)c3ccccc23)cc1 [Doramapimod]
drug sensitivity score [1]: 4.1 DSS
drug sensitivity score [3]: 5.5 DSS
drug sensitivity score [2]: 6 DSS

COc1ccc(C2=N[C@@H](c3ccc(Cl)cc3)[C@@H](c3ccc(Cl)cc3)N2C(=O)N2CCNC(=O)C2)c(OC(C)C)c1 [Nutlin-3]
drug sensitivity score [1]: 0 DSS
drug sensitivity score [3]: 0 DSS
drug sensitivity score [2]: 0.2 DSS

C[C@]12CC[C@H](O)CC1=CC[C@@H]1[C@@H]2CC[C@]2(C)C(c3cccnc3)=CC[C@@H]12 [Abiraterone]
drug sensitivity score [1]: 0 DSS
drug sensitivity score [3]: 0 DSS
drug sensitivity score [2]: 0 DSS

CCCCCCCCCCCCCCCCCCOP(=O)([O-])OC1CC[N+](C)(C)CC1 [Perifosine]
drug sensitivity score [1]: 2.3 DSS
drug sensitivity score [2]: 3.7 DSS

Cc1cc2c(F)c(Oc3ncnn4cc(OC[C@@H](C)O)c(C)c34)ccc2[nH]1 [Brivanib]
drug sensitivity score [1]: 0 DSS
drug sensitivity score [3]: 0 DSS
drug sensitivity score [2]: 0 DSS

N#Cc1ccc(C(c2ccc(C#N)cc2)n2cncn2)cc1 [Letrozole]
drug sensitivity score [1]: 0 DSS
drug sensitivity score [3]: 0 DSS
drug sensitivity score [2]: 0.1 DSS

CNC(=O)[C@@H](NC(=O)[C@H](CC(C)C)[C@H](O)C(=O)NO)C(C)(C)C [Marimastat]
drug sensitivity score [1]: 0 DSS
drug sensitivity score [3]: 0 DSS
drug sensitivity score [2]: 0 DSS

Cn1ncc(Cl)c1-c1cc(C(=O)N[C@H](CN)Cc2cccc(F)c2)sc1Cl [Afuresertib]
drug sensitivity score [1]: 0 DSS
drug sensitivity score [3]: 2 DSS
drug sensitivity score [2]: 0 DSS

NC(=O)c1cccc2cn(-c3ccc([C@@H]4CCCNC4)cc3)nc12 [Niraparib]
drug sensitivity score [1]: 3.3 DSS
drug sensitivity score [3]: 1.1 DSS
drug sensitivity score [2]: 4.9 DSS

CNc1nc(Nc2cn(C(C)(C)C#N)nc2C)ncc1C(F)(F)F [GNE-0877]
drug sensitivity score [1]: 1.6 DSS
drug sensitivity score [3]: 0 DSS
drug sensitivity score [2]: 5.8 DSS

CC(C)n1cnc2c(NCCc3ccc(O)cc3)nc(-c3csc4ccccc34)nc21 [StemRegenin 1]
drug sensitivity score [1]: 1.3 DSS
drug sensitivity score [3]: 1 DSS
drug sensitivity score [2]: 0.8 DSS

COc1ccccc1S(=O)(=O)Nc1ccc2c(c1)CN(C)C(=O)N2 [PFI-1]
drug sensitivity score [1]: 1.8 DSS
drug sensitivity score [3]: 0.5 DSS
drug sensitivity score [2]: 0.4 DSS

O=C(O)C1(C(=O)O)CCC1.[NH2-].[NH2-].[Pt+2] [Carboplatin]
drug sensitivity score [1]: 1 DSS
drug sensitivity score [2]: 0.5 DSS

O=C1NC(=O)/C(=C/c2ccc3nccc(-c4ccncc4)c3c2)S1
drug sensitivity score [1]: 7.6 DSS
drug sensitivity score [2]: 5.9 DSS

Cn1c(CCCC(=O)O)nc2cc(N(CCCl)CCCl)ccc21 [Bendamustine]
drug sensitivity score [1]: 1.7 DSS
drug sensitivity score [3]: 0.5 DSS
drug sensitivity score [2]: 3.5 DSS

CO[C@H]1C(=O)[C@]2(C)[C@@H](OC)C[C@H]3OC[C@@]3(OC(C)=O)[C@H]2[C@H](OC(=O)c2ccccc2)[C@]2(O)C[C@H](OC(=O)[C@H](O)[C@@H](NC(=O)OC(C)(C)C)c3ccccc3)C(C)=C1C2(C)C [Cabazitaxel]
drug sensitivity score [1]: 18.7 DSS
drug sensitivity score [3]: 14.6 DSS
drug sensitivity score [2]: 20.3 DSS

CC[C@@]1(O)C(=O)OCc2c1cc1n(c2=O)Cc2cc3c(CN(C)C)c(O)ccc3nc2-1 [Topotecan]
drug sensitivity score [1]: 11.3 DSS
drug sensitivity score [3]: 8.8 DSS
drug sensitivity score [2]: 9.7 DSS

COc1cccc(OCCCN)c1-c1cc(Nc2cnc(C#N)cn2)n[nH]1 [Prexasertib]
drug sensitivity score [1]: 29.1 DSS
drug sensitivity score [3]: 26.2 DSS
drug sensitivity score [2]: 28.1 DSS

CCOc1cc2ncc(C#N)c(Nc3ccc(F)c(Cl)c3)c2cc1NC(=O)/C=C/CN(C)C [Pelitinib]
drug sensitivity score [1]: 7.8 DSS
drug sensitivity score [3]: 8.6 DSS
drug sensitivity score [2]: 12.3 DSS

COc1c(C)cnc(Cn2cnc3c(Cl)nc(N)nc32)c1C [BIIB021]
drug sensitivity score [1]: 17.4 DSS
drug sensitivity score [3]: 18.4 DSS
drug sensitivity score [2]: 17.8 DSS

CN(C)C(=O)c1cc2cnc(Nc3ccc(N4CCNCC4)cn3)nc2n1C1CCCC1 [Ribociclib]
drug sensitivity score [1]: 3.8 DSS
drug sensitivity score [2]: 4.9 DSS

Cn1cnc2c(F)c(Nc3ccc(Br)cc3F)c(C(=O)NOCCO)cc21 [Binimetinib]
drug sensitivity score [1]: 11.9 DSS
drug sensitivity score [3]: 6.6 DSS
drug sensitivity score [2]: 6.6 DSS

COc1cc(F)c(F)c(Nc2ccc(I)cc2F)c1NS(=O)(=O)C1(C[C@H](O)CO)CC1 [Refametinib]
drug sensitivity score [1]: 26.8 DSS
drug sensitivity score [3]: 18 DSS
drug sensitivity score [2]: 11.1 DSS

COc1cc2nccc(Oc3ccc(NC(=O)NC4CC4)c(Cl)c3)c2cc1C(N)=O [Lenvatinib]
drug sensitivity score [1]: 1.8 DSS
drug sensitivity score [3]: 1.3 DSS
drug sensitivity score [2]: 2.1 DSS

COc1c(OCCCN2CCOCC2)ccc2c1N=C(NC(=O)c1cnc(N)nc1)N1CCN=C21 [Copanlisib]
drug sensitivity score [1]: 4 DSS
drug sensitivity score [3]: 0.3 DSS
drug sensitivity score [2]: 0 DSS

CCN(CC)CCOc1ccc(C(=C(Cl)c2ccccc2)c2ccccc2)cc1 [Clomifene]
drug sensitivity score [1]: 7 DSS
drug sensitivity score [3]: 5.3 DSS
drug sensitivity score [2]: 6.1 DSS

C=CC(=O)N1CCC[C@@H](n2nc(-c3ccc(Oc4ccccc4)cc3)c3c(N)ncnc32)C1 [Ibrutinib]
drug sensitivity score [1]: 0 DSS
drug sensitivity score [3]: 0.6 DSS
drug sensitivity score [2]: 0 DSS

N[C@@H]1CCCN(c2c(/C=C3\SC(=O)NC3=O)cccc2-c2ccccc2)C1 [AZD1208]
drug sensitivity score [1]: 0 DSS
drug sensitivity score [2]: 0 DSS

CCN(CC)CCN(Cc1ccc(-c2ccc(C(F)(F)F)cc2)cc1)C(=O)Cn1c(SCc2ccc(F)cc2)nc(=O)c2c1CCC2 [Darapladib]
drug sensitivity score [1]: 0.1 DSS
drug sensitivity score [3]: 0 DSS
drug sensitivity score [2]: 5.8 DSS

CCn1c(-c2nonc2N)nc2cnc(Oc3cccc(NC(=O)c4ccc(OCCN5CCOCC5)cc4)c3)cc21
drug sensitivity score [1]: 4.8 DSS
drug sensitivity score [3]: 5.2 DSS
drug sensitivity score [2]: 5.5 DSS

O=C1CCC(N2C(=O)c3ccccc3C2=O)C(=O)N1 (configuration not stated) [Thalidomide]
drug sensitivity score [1]: 0.5 DSS
drug sensitivity score [3]: 0.1 DSS
drug sensitivity score [2]: 2 DSS

C=CC(=O)Nc1cccc(Nc2nc(Nc3ccc(N4CCN(C(C)=O)CC4)cc3OC)ncc2C(F)(F)F)c1 [Rociletinib]
drug sensitivity score [1]: 7.2 DSS
drug sensitivity score [3]: 3.5 DSS
drug sensitivity score [2]: 7.5 DSS

CC[C@@H]1C(=O)N(C)c2cnc(Nc3ccc(C(=O)NC4CCN(C)CC4)cc3OC)nc2N1C1CCCC1 [BI 2536]
drug sensitivity score [1]: 16.8 DSS
drug sensitivity score [3]: 18.5 DSS
drug sensitivity score [2]: 19.9 DSS

COc1cccc2c1C(=O)c1c(O)c3c(c(O)c1C2=O)C[C@@](O)(C(C)=O)C[C@@H]3O[C@H]1C[C@H](N)[C@H](O)[C@H](C)O1 [Daunorubicin]
drug sensitivity score [1]: 9.5 DSS
drug sensitivity score [3]: 7.3 DSS
drug sensitivity score [2]: 10 DSS

COc1ccc(-c2nc(N3CCOCC3)c3sc(CN(C)c4ncc(C(=O)NO)cn4)cc3n2)cn1 [CUDC-907]
drug sensitivity score [1]: 40.7 DSS
drug sensitivity score [3]: 33.9 DSS
drug sensitivity score [2]: 34.2 DSS

Cc1nc(Nc2n[nH]c3c2CN(C(=O)N[C@H](CN(C)C)c2ccccc2)C3(C)C)c2sccc2n1
drug sensitivity score [1]: 14.9 DSS
drug sensitivity score [3]: 13.7 DSS
drug sensitivity score [2]: 16.5 DSS

O=c1[nH]c(C2CCCN2)nc2c1oc1ccc(Cl)cc12 (configuration not stated)
drug sensitivity score [1]: 1.5 DSS
drug sensitivity score [3]: 0 DSS
drug sensitivity score [2]: 8.1 DSS

C[C@@H]1CN(CC(=O)Nc2ccc3c(c2)Cc2cccc(-c4cc(=O)cc(N5CCOCC5)o4)c2S3)C[C@H](C)O1
drug sensitivity score [1]: 6.4 DSS
drug sensitivity score [2]: 5.3 DSS

OCCn1cc(-c2cnc3nnn(Cc4ccc5ncccc5c4)c3n2)cn1
drug sensitivity score [1]: 0 DSS
drug sensitivity score [3]: 0 DSS
drug sensitivity score [2]: 0 DSS

CC(C)c1cc(C(=O)N2Cc3ccc(CN4CCN(C)CC4)cc3C2)c(O)cc1O [Onalespib]
drug sensitivity score [1]: 11.3 DSS
drug sensitivity score [3]: 9.4 DSS
drug sensitivity score [2]: 13.8 DSS

CC[C@H](C)C(=O)O[C@H]1C[C@@H](C)C=C2C=C[C@H](C)[C@H](CC[C@@H]3C[C@@H](O)CC(=O)O3)[C@H]21 [Lovastatin]
drug sensitivity score [1]: 0 DSS
drug sensitivity score [2]: 0 DSS

O=C(O)CC1CC(c2ccccc2)=NO1 (configuration not stated) [VGX-1027]
drug sensitivity score [1]: 0.2 DSS
drug sensitivity score [3]: 2.3 DSS
drug sensitivity score [2]: 0 DSS

c1ccc([C@H]2CN3CCSC3=N2)cc1 [Levamisole]
drug sensitivity score [1]: 0 DSS
drug sensitivity score [3]: 0 DSS
drug sensitivity score [2]: 0 DSS

CN(C)CCN1C(=O)c2cccc3cc(N)cc(c23)C1=O [Amonafide]
drug sensitivity score [1]: 8.8 DSS
drug sensitivity score [3]: 5.2 DSS
drug sensitivity score [2]: 7.8 DSS

Nc1ncnc2c1nc(Cl)n2[C@@H]1O[C@H](CO)[C@@H](O)[C@H]1O [8-chloro-adenosine]
drug sensitivity score [1]: 13.5 DSS
drug sensitivity score [3]: 13.3 DSS
drug sensitivity score [2]: 11.3 DSS

Cc1cnc(Nc2ccc(OCCN3CCCC3)cc2)nc1Nc1cccc(S(=O)(=O)NC(C)(C)C)c1 [Fedratinib]
drug sensitivity score [1]: 5.8 DSS
drug sensitivity score [3]: 6.5 DSS
drug sensitivity score [2]: 5.8 DSS

CS(=O)(=O)c1ccc(-c2cnc(N)c(C(=O)Nc3ccccc3)n2)cc1 [VE-821]
drug sensitivity score [1]: 0 DSS
drug sensitivity score [2]: 0.8 DSS

C[C@]12C=CC(=O)C=C1CC[C@@H]1[C@@H]2[C@@H](O)C[C@@]2(C)[C@H]1CC[C@]2(O)C(=O)CO [Prednisolone]
drug sensitivity score [1]: 0 DSS
drug sensitivity score [3]: 0 DSS
drug sensitivity score [2]: 0 DSS

Cc1cc(C)c(CNC(=O)c2cc(-c3ccc(CN4CCOCC4)cc3)cc3c2cnn3C2CCCC2)c(=O)[nH]1 [EPZ-5687]
drug sensitivity score [1]: 0 DSS
drug sensitivity score [3]: 0 DSS
drug sensitivity score [2]: 0 DSS

CNc1ncc2cc(-c3cc(NC(=O)NCCC(C)(C)C)c(F)cc3C)c(C)nc2n1
drug sensitivity score [1]: 13.4 DSS
drug sensitivity score [3]: 6.6 DSS
drug sensitivity score [2]: 9.7 DSS

CN(C)c1nc(N(C)C)nc(N(C)C)n1 [Altretamine]
drug sensitivity score [1]: 0 DSS
drug sensitivity score [3]: 0 DSS
drug sensitivity score [2]: 0 DSS
